The target of one assay is T1, PI3K α (Homo sapiens, UniProt P42336).
T1 construct: Full length p110 subunits of PI3K α, β and δ, N-terminally labeled with polyHis tag; polyHis (N); made in house; host or cells: Sf9 insect cells (baculovirus)
In words: In vitro PI3 kinase enzyme assay (alpha), ATP loss, bioluminescence.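 Also: purified p110α/p85 heterodimer acting on PtdIns(4,5)P2 at room temperature, remaining ATP read by luminescence, inhibition scaled between compound-free wells with and without enzyme.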 It is filed as biochemical. As to conditions: read-out: PI3Kα ATP loss IC50.

The target of the next assay is T2, PI3K β (Homo sapiens, UniProt P42338).
T2 construct: Full length p110 subunits of PI3K α, β and δ, N-terminally labeled with polyHis tag; polyHis (N); made in house; host or cells: Sf9 insect cells (baculovirus)
Put plainly: In vitro PI3 kinase enzyme assay (beta), ATP loss, bioluminescence.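 Also: purified p110β/p85 heterodimer with PtdIns(4,5)P2 as acceptor, incubated at room temperature, leftover ATP read by luminescence, inhibition scaled to compound-free wells with and without enzyme.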 It is filed as biochemical. As to conditions: read-out: PI3Kβ ATP loss IC50.

A value given as a limit tells only on which side of the number the result lay.

T1 sequence (P42336 whole entry, species assumed): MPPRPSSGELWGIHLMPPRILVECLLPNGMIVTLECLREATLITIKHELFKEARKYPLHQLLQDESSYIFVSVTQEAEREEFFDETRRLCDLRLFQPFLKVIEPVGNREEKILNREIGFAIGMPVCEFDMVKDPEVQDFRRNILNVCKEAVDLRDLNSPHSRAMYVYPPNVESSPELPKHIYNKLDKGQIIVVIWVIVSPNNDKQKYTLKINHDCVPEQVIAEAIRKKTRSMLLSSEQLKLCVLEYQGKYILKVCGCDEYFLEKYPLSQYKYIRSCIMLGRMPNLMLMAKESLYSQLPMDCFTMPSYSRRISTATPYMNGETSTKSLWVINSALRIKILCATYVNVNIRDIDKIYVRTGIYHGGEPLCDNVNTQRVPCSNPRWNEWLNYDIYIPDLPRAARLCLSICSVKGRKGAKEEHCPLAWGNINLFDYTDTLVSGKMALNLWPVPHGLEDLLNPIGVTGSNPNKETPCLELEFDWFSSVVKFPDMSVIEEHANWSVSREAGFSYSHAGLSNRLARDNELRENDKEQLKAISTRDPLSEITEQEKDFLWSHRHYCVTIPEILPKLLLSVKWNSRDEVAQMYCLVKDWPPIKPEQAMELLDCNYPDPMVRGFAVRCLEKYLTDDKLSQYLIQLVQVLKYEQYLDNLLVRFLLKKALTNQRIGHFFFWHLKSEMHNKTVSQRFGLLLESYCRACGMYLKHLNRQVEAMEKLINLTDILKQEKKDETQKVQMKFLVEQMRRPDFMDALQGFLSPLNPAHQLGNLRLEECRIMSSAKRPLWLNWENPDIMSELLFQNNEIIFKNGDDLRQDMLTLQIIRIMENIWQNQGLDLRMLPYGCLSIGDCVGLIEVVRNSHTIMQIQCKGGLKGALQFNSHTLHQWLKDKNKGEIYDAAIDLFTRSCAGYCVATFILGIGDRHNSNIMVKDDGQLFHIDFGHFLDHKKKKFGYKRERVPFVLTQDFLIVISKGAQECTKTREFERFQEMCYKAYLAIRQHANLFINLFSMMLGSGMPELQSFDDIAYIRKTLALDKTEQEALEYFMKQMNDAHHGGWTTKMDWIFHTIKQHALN
T1 sequence (P27986 whole entry partner, species assumed): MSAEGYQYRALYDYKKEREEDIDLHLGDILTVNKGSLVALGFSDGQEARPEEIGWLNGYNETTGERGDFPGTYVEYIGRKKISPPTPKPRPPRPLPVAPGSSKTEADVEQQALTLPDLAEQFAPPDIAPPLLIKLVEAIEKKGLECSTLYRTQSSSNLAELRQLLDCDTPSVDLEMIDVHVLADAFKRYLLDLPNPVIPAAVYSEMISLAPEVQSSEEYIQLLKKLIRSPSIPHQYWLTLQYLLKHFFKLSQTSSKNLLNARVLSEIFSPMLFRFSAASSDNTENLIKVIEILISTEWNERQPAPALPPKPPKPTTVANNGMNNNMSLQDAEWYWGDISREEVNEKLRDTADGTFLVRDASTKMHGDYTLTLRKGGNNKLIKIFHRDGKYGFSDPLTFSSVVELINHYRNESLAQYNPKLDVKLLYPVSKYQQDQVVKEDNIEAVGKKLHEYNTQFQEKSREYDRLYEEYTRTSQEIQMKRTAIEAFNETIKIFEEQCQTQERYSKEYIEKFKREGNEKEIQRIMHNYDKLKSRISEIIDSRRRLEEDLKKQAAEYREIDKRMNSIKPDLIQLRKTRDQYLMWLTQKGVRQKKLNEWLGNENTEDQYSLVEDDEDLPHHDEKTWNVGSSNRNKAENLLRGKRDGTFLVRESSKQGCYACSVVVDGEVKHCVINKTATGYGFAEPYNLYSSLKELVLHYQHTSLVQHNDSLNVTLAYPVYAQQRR
T2 sequence (P42338 whole entry): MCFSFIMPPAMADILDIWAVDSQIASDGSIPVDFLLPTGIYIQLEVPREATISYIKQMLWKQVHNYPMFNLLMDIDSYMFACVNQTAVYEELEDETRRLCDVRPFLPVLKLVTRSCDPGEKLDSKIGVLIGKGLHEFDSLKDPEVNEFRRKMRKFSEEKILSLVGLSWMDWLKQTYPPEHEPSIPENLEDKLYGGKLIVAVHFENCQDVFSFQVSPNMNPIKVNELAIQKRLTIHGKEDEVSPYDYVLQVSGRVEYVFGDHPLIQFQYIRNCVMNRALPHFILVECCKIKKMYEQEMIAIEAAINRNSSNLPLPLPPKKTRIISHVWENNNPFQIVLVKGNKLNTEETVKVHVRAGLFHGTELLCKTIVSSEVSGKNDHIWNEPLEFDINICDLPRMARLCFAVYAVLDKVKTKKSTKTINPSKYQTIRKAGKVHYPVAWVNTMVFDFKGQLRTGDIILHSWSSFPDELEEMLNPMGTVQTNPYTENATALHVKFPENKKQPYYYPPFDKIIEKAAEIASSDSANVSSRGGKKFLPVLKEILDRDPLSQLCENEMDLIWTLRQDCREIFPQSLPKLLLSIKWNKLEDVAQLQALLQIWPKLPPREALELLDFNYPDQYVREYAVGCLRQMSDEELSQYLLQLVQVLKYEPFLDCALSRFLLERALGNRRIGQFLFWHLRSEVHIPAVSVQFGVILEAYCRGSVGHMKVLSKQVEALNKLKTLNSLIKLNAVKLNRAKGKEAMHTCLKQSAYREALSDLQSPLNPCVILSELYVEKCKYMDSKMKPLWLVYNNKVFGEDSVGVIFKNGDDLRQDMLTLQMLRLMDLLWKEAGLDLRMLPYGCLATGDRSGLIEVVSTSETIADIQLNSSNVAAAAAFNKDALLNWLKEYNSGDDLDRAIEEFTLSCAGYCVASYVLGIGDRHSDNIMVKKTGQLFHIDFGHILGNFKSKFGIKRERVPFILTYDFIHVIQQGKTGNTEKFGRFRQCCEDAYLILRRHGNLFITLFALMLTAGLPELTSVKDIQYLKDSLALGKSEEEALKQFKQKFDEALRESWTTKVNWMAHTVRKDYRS
T2 sequence (P27986 whole entry partner): as the sequence (P27986 whole entry partner, species assumed) above

As to `CC(=O)Nc1nc2ccc(-c3cccc(N(C)S(=O)(=O)c4ccccc4F)n3)cc2s1` [Example 226, N-(6-(6-(2-fluoro-N-methylphenylsulfonamido)pyridin-2-yl)benzo[d]thiazol-2-yl)acetamide], the IC50 on PI3K α worked out at 161 nM; on PI3K β it was 576 nM.
In the same order, the values of `CC(=O)Nc1nc2ccc(-c3csc(S(=O)(=O)c4ccc(F)cc4)n3)cc2s1` [Example 97, N-(6-(2-(4-Fluorophenylsulfonyl)thiazol-4-yl)benzo[d]thiazol-2-yl)acetamide] are 17300 nM and 28000 nM.
The like results for `CN(C)CC(=O)Nc1nc2ccc(-c3ccnc(OCc4ccccc4)n3)cc2s1` [Example 59, N-(6-(2-(benzyloxy)-4-pyrimidinyl)-1,3-benzothiazol-2-yl)-N~2~,N~2~-dimethylglycinamide] were, in that order, 11300 nM and 9800 nM.
Regarding `CC(=O)Nc1nc2ccc(-c3ccnc(OC4CCN(C)CC4)n3)cc2s1` [Example 31, N-(6-(2-((1-methyl-4-piperidinyl)oxy)-4-pyrimidinyl)-1,3-benzothiazol-2-yl)acetamide], the IC50 on PI3K α is 2380 nM; at PI3K β, above 40000 nM.
In the same order, the values of `CC(=O)Nc1nc2ccc(-c3nnc(NS(=O)(=O)c4ccc(F)cc4)o3)cc2s1` [Example 164, N-(6-(5-(4-Fluorophenylsulfonamido)-1,3,4-oxadiazol-2-yl)benzo[d]thiazol-2-yl)acetamide] are 17.8 nM and 322 nM.
For the molecule `CC(=O)Nc1nc2ccc(-c3ccnc(N4CCCC4c4ccccc4)n3)cc2s1` (racemic) [Example 266, N-(6-(2-(2-phenylpyrrolidin-1-yl)pyrimidin-4-yl)benzo[d]thiazol-2-yl)acetamide], the IC50 was found to be 2620 nM on PI3K α and 1610 nM at PI3K β.
With `CC(=O)Nc1nc2ccc(-c3ccnc(Oc4ccccc4)n3)cc2s1` [Example 33, N-(6-(2-phenoxy-4-pyrimidinyl)-1,3-benzothiazol-2-yl)acetamide], the IC50 on PI3K β turned out to be 5970 nM.
Turning to `CC(=O)Nc1nc2ccc(-c3ccnc(OCCN4CCOCC4)n3)cc2s1` [Example 11], the IC50 on PI3K β was above 40000 nM.
Still for that read-out and setting: the value for `COCCCOc1nccc(-c2ccc3nc(NC(C)=O)sc3c2)n1` [Example 5, N-(6-(2-(3-methoxypropoxy)-4-pyrimidinyl)-1,3-benzothiazol-2-yl)acetamide] was above 40000 nM.
In the case of `COc1ccc(COc2nccc(-c3ccc4nc(NC(C)=O)sc4c3)n2)cc1` [Example 38, N-(6-(2-((4-methoxybenzyl)oxy)-4-pyrimidinyl)-1,3-benzothiazol-2-yl)acetamide], the IC50 at PI3K α was found to be 126 nM.
As to `COc1ccccc1Sc1nccc(-c2ccc3nc(NC(C)=O)sc3c2)n1` [Example 28, N-(6-(2-((2-methoxyphenyl)sulfanyl)-4-pyrimidinyl)-1,3-benzothiazol-2-yl)acetamide], on PI3K β, the IC50 amounted to 491 nM.
For the molecule `CC(=O)Nc1nc2ccc(-c3cccc(N)c3)nc2s1` [Example 156, N-(5-(3-aminophenyl)thiazolo[5,4-b]pyridin-2-yl)acetamide], on PI3K α, the IC50 was found to be 642 nM.
For `CC(=O)Nc1nc2ccc(-c3ccnc(Sc4ccccc4)n3)cc2s1` [Example 21, N-(6-(2-(phenylsulfanyl)-4-pyrimidinyl)-1,3-benzothiazol-2-yl)acetamide], the IC50 on PI3K β came out at 309 nM.
On the same count and under the same terms, the value for `CC(=O)Nc1nc2ccc(-c3ccnc(CCc4ccccc4)n3)cc2s1` [Example 15, N-(6-(2-(2-phenylethyl)-4-pyrimidinyl)-1,3-benzothiazol-2-yl)acetamide] was 6470 nM.
On the same count and under the same terms, with `COc1ccc(S(=O)(=O)Nc2cccc(-c3ccc4nc(NC(C)=O)sc4c3)c2)cc1` [Example 260, N-(6-(3-(4-methoxyphenylsulfonamido)phenyl)benzo[d]thiazol-2-yl)acetamide] the figure was 413 nM; with `CC(=O)Nc1nc2ccc(-c3ccnc(Cl)n3)cc2s1` [Example 105, N-(6-(2-chloro-4-pyrimidinyl)-1,3-benzothiazol-2-yl)acetamide], 8270 nM.

One may read the IC50 as the point on the concentration scale where inhibition reaches its midpoint.

The values above are taken from patent US7928140B2, “Benzothiazole PI3 kinase modulators for cancer treatment” (Amgen Inc., priority 2007, dated 2011).
